From patent publication US9957261B2 (Hoffmann-La Roche Inc., priority 2014, dated 2018)

How the values were obtained:
[1] = target: mouse TAAR1 (Mus musculus (Mouse), UniProt Q923Y8); experiment: Radioligand binding assay on mouse TAAR1; details: mouse TAAR1, membranes of stably transfected HEK-293 cells; first value of mouse/rat pair
Method: (§1) Construction of TAAR Expression Plasmids and Stably Transfected Cell Lines
(§2) For the construction of expression plasmids the coding sequences of human, rat and mouse TAAR 1 were amplified from genomic DNA essentially as described by Lindemann et al.. The Expand High Fidelity PCR System (Roche Diagnostics) was used with 1.5 mM Mg^2+ and purified PCR products were cloned into pCR2.1-TOPO cloning vector (Invitrogen) following the instructions of the manufacturer. PCR products were subcloned into the pIRESneo2 vector (BD Clontech, Palo Alto, Calif.), and expression vectors were sequence verified before introduction in cell lines.
(§3) HEK293 cells (ATCC # CRL-1573) were cultured essentially as described by Lindemann et al. (2005). For the generation of stably transfected cell lines HEK293 cells were transfected with the pIRESneo2 expression plasmids containing the TAAR coding sequences (described above) with Lipofectamine 2000 (Invitrogen) according to the instructions of the manufacturer, and 24 hrs post transfection the culture medium was supplemented with 1 mg/ml G418 (Sigma, Buchs, Switzerland). After a culture period of about 10 d clones were isolated, expanded and tested for responsiveness to trace amines (all compounds purchased from Sigma) with the cAMP Biotrak Enzyme immunoassay (EIA) System (Amersham) following the non-acetylation EIA procedure provided by the manufacturer.
Radioligand Binding Assay on Mouse TAAR1
(§4) Membrane Preparation and Radioligand Binding.
(§5) HEK-293 cells stably expressing mouse TAAR1 were maintained at 37° C. and 5% CO2 in DMEM high glucose medium, containing fetal calf serum (10%, heat inactivated for 30 min at 56° C.), penicillin/streptomycin (1%), and 375 μg/ml geneticin (Gibco). Cells were released from culture flasks using trypsin/EDTA, harvested, washed twice with ice-cold PBS (without Ca^2+ and Mg^2+), pelleted at 1′000 rpm for 5 min at 4° C., frozen and stored at −80° C. Frozen pellets were suspended in 20 ml HEPES-NaOH (20 mM, pH 7.4) containing 10 mM EDTA and homogenized with a Polytron (PT 6000, Kinematica) at 14,000 rpm for 20 s. The homogenate was centrifuged at 48,000×g for 30 min at 4° C. Subsequently, the supernatant was removed and discarded, and the pellet resuspended in 20 ml HEPES-NaOH (20 mM, pH 7.4) containing 0.1 mM EDTA using the Polytron (20 s at 14,000 rpm). This procedure was repeated and the final pellet resuspended in HEPES-NaOH containing 0.1 mM EDTA and homogenized using the Polytron. Typically, aliquots of 2 ml membrane portions were stored at −80° C. With each new membrane batch the dissociation constant (Kd) was determined via a saturation curve. […] Nonspecific binding was defined as the amount of ^3[H]—(S)-4-[(ethyl-phenyl-amino)-methyl]-4,5-dihydro-oxazol-2-ylamine bound in the presence of 10 μM unlabeled ligand. All compounds were tested at a broad range of concentrations (10 pM to 10 μM) in duplicates. […] The 96 deep well plates were incubated for 1 hr at 4° C. Incubations were terminated by rapid filtration through Unifilter-96 plates (Packard Instrument Company) and glass filters GF/C (Perkin Elmer) presoaked for 1 hr in polyethylenimine (0.3%) and washed 3 times with 1 ml of cold binding buffer. After addition of 45 μl of Microscint 40 (PerkinElmer) the Unifilter-96 plate was sealed and after 1 hr the radioactivity counted using a TopCount Microplate Scintillation Counter (Packard Instrument Company).

[2] = target: rat TAAR1 (Rattus norvegicus (Rat), UniProt Q923Y9); experiment: Radioligand binding assay on rat TAAR1; details: rat TAAR1, membranes of stably transfected HEK-293 cells; second value of mouse/rat pair
Method: as §1, §2, §3
Radioligand Binding Assay on Rat TAAR1
as §4
as §5, with “rat” for “mouse”, “[H]—(S)-4-[(ethyl-phenyl-amino)-methyl]-4,5-dihydro-oxazol-2-ylamine” for “^3[H]—(S)-4-[(ethyl-phenyl-amino)-methyl]-4,5-dihydro-oxazol-2-ylamine”

Chain of mouse TAAR1 (Q923Y8 whole entry): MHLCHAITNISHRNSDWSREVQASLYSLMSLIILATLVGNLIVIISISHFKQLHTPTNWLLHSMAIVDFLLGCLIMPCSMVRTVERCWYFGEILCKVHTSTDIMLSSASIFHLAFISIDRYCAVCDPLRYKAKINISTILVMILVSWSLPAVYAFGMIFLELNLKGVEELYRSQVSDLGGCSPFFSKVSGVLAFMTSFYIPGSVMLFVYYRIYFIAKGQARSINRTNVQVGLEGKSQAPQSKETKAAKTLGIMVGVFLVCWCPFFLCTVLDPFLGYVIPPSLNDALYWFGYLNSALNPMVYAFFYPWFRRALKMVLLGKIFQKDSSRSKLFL
Chain of rat TAAR1 (Q923Y9 whole entry): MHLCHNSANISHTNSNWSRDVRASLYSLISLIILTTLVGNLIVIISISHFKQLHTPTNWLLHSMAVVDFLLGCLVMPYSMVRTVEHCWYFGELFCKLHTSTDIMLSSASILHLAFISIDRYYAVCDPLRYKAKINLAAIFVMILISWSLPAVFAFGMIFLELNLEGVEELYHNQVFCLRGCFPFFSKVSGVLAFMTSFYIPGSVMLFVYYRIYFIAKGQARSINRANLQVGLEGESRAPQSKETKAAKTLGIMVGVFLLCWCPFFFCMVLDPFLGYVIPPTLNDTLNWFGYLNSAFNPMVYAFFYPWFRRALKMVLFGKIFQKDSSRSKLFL

## NC1CCc2cc(C(=O)Nc3ccc(Cl)cc3)ccc2C1 (stereo not drawn) [Example 57, 6-Amino-N-(4-chlorophenyl)-5,6,7,8-tetrahydronaphthalene-2-carboxamide]
[1]
  Ki: 0.0116 µM
[2]
  Ki: 0.0142 µM

## NC1CCc2cc(C(=O)Nc3ccc(F)cc3)ccc2C1 (stereo not drawn) [Example 58, 6-Amino-N-(4-fluorophenyl)-5,6,7,8-tetrahydronaphthalene-2-carboxamide]
[1]
  Ki: 0.0569 µM
[2]
  Ki: 0.0964 µM

## NC1CCc2cc(C(=O)Nc3cccc(Cl)c3)ccc2C1 (stereo not drawn) [Example 59, 6-Amino-N-(3-chlorophenyl)-5,6,7,8-tetrahydronaphthalene-2-carboxamide]
[1]
  Ki: 0.0018 µM
[2]
  Ki: 0.0109 µM

## NC1CCc2cc(C(=O)Nc3ccc(C4CC4)cc3)ccc2C1 (stereo not drawn) [Example 60, 6-Amino-N-(4-cyclopropylphenyl)-5,6,7,8-tetrahydronaphthalene-2-carboxamide]
[1]
  Ki: 0.0096 µM
[2]
  Ki: 0.0213 µM

## N[C@H]1CCc2cc(Nc3cccc(OC(F)(F)F)c3)ccc2C1 [Example 61, (S)—N6-(3-(Trifluoromethoxy)phenyl)-1,2,3,4-tetrahydronaphthalene-2,6-diamine]
[1]
  Ki: 0.0071 µM
[2]
  Ki: 0.0049 µM

## N[C@H]1CCc2cc(NC(=O)NCc3ccc(Cl)cn3)ccc2C1 [Example 62, (S)-1-(6-Amino-5,6,7,8-tetrahydronaphthalen-2-yl)-3-((5-chloropyridin-2-yl)methyl)urea]
[1]
  Ki: 0.0355 µM
[2]
  Ki: 0.095 µM

## N[C@H]1CCc2cc(NC(=O)NCc3cccc(OC(F)(F)F)c3)ccc2C1 [Example 63, (S)-1-(6-Amino-5,6,7,8-tetrahydronaphthalen-2-yl)-3-(3-(trifluoromethoxy)benzyl)urea]
[1]
  Ki: 0.002 µM
[2]
  Ki: 0.0039 µM

## CCc1ccc(NC(=O)Nc2ccc3c(c2)CC[C@H](N)C3)cc1 [Example 64, (S)-1-(6-Amino-5,6,7,8-tetrahydronaphthalen-2-yl)-3-(4-ethylphenyl)urea]
[1]
  Ki: 0.003 µM
[2]
  Ki: 0.0026 µM

## N[C@H]1CCc2cc(NC(=O)Nc3ccc(OC(F)(F)F)cc3)ccc2C1 [Example 65, (S)-1-(6-Amino-5,6,7,8-tetrahydronaphthalen-2-yl)-3-(4-(trifluoromethoxy)phenyl)urea]
[1]
  Ki: 0.0012 µM
[2]
  Ki: 0.0003 µM

## N[C@H]1CCc2cc(Nc3ccc(F)cc3)ccc2C1 [Example 66, (S)—N6-(4-Fluorophenyl)-1,2,3,4-tetrahydronaphthalene-2,6-diamine]
[1]
  Ki: 0.171 µM
[2]
  Ki: 0.024 µM

## COc1cccc(NC(=O)Nc2ccc3c(c2)CC[C@H](N)C3)c1 [Example 67, (S)-1-(6-Amino-5,6,7,8-tetrahydronaphthalen-2-yl)-3-(3-methoxyphenyl)urea]
[1]
  Ki: 0.0075 µM
[2]
  Ki: 0.0044 µM

## N[C@H]1CCc2cc(Nc3cccc(Cl)c3)ccc2C1 [Example 68, (S)—N6-(3-Chlorophenyl)-1,2,3,4-tetrahydronaphthalene-2,6-diamine]
[1]
  Ki: 0.019 µM
[2]
  Ki: 0.0099 µM

## N[C@H]1CCc2cc(NC(=O)NCc3ccc(Cl)cc3)ccc2C1 [Example 69, (S)-1-(6-Amino-5,6,7,8-tetrahydronaphthalen-2-yl)-3-(4-chlorobenzyl)urea]
[1]
  Ki: 0.0029 µM
[2]
  Ki: 0.0085 µM

## N#Cc1ccc(NC(=O)c2ccc3c(c2)CCC(N)C3)cc1 (stereo not drawn) [Example 70]
[1]
  Ki: 0.0044 µM
[2]
  Ki: 0.0032 µM

## N[C@H]1CCc2cc(NC(=O)Nc3ccc(C4CC4)cc3)ccc2C1 [Example 72, (S)-1-(6-Amino-5,6,7,8-tetrahydronaphthalen-2-yl)-3-(4-cyclopropylphenyl)urea]
[1]
  Ki: 0.001 µM
[2]
  Ki: 0.0009 µM

## N[C@H]1CCc2cc(Nc3ccc(C4CC4)cc3)ccc2C1 [Example 73, (S)—N6-(4-Cyclopropylphenyl)-1,2,3,4-tetrahydronaphthalene-2,6-diamine]
[1]
  Ki: 0.01 µM
[2]
  Ki: 0.0081 µM

## N[C@H]1CCc2cc(NC(=O)Nc3ccc(Cl)cc3)ccc2C1 [Example 74, (S)-1-(6-Amino-5,6,7,8-tetrahydronaphthalen-2-yl)-3-(4-chlorophenyl)urea]
[1]
  Ki: 0.001 µM
[2]
  Ki: 0.0005 µM

## N[C@H]1CCc2c(ccc(NC(=O)c3ccc(Cl)nc3)c2Cl)C1 [Example 76, (S)—N-(6-Amino-1-chloro-5,6,7,8-tetrahydronaphthalen-2-yl)-6-chloronicotinamide]
[1]
  Ki: > 1.51 µM
[2]
  Ki: 0.302 µM

## N[C@@H]1CCc2cc(C(=O)Nc3cccc(OC(F)(F)F)c3)ccc2C1 [Example 78, (R)-6-Amino-N-(3-(trifluoromethoxy)phenyl)-5,6,7,8-tetrahydronaphthalene-2-carboxamide]
[1]
  Ki: 0.0073 µM
[2]
  Ki: 0.0044 µM

## N[C@H]1CCc2cc(C(=O)Nc3cccc(OC(F)(F)F)c3)ccc2C1 [Example 79, (S)-6-Amino-N-(3-(trifluoromethoxy)phenyl)-5,6,7,8-tetrahydronaphthalene-2-carboxamide]
[1]
  Ki: 0.0008 µM
[2]
  Ki: 0.0009 µM

## N[C@H]1COc2cc(Nc3ncc(C(F)(F)F)cn3)ccc2C1 [Example 80, (R)—N7-(5-(Trifluoromethyl)pyrimidin-2-yl)chroman-3,7-diamine]
[1]
  Ki: 0.0163 µM
[2]
  Ki: 0.0196 µM

## CCOc1[nH]nc(C(=O)Nc2ccc3c(c2)OC[C@H](N)C3)c1C [Example 81, (R)—N-(3-Aminochroman-7-yl)-5-ethoxy-4-methyl-1H-pyrazole-3-carboxamide]
[1]
  Ki: 0.0082 µM
[2]
  Ki: 0.0277 µM

## N[C@H]1COc2cc(NC(=O)c3nccc(Cl)n3)ccc2C1 [Example 82, (R)—N-(3-Aminochroman-7-yl)-4-chloropyrimidine-2-carboxamide]
[1]
  Ki: 0.173 µM
[2]
  Ki: 0.511 µM

## Cc1nc(-c2ccc(C(=O)Nc3ccc4c(c3)OC[C@H](N)C4)cc2)cs1 [Example 83, (R)—N-(3-Aminochroman-7-yl)-4-(2-methylthiazol-4-yl)benzamide]
[1]
  Ki: 0.0018 µM
[2]
  Ki: 0.0034 µM

## N[C@H]1COc2cc(NC(=O)c3ncc(C(F)(F)F)cn3)ccc2C1 [Example 84, (R)—N-(3-Aminochroman-7-yl)-5-(trifluoromethyl)pyrimidine-2-carboxamide]
[1]
  Ki: 0.0371 µM
[2]
  Ki: 0.0758 µM

## Cn1nc(C(=O)Nc2ccc3c(c2)OC[C@H](N)C3)cc1-c1cccs1 [Example 85, (R)—N-(3-Aminochroman-7-yl)-1-methyl-5-(thiophen-2-yl)-1H-pyrazole-3-carboxamide]
[1]
  Ki: 0.0009 µM
[2]
  Ki: 0.0061 µM

## N#Cc1ccc(C(=O)Nc2ccc3c(c2)OC[C@H](N)C3)cc1F [Example 86, (R)—N-(3-Aminochroman-7-yl)-4-cyano-3-fluorobenzamide]
[1]
  Ki: 0.0026 µM
[2]
  Ki: 0.0044 µM
